Like-named read-outs stand apart in the source and are kept apart here.
How the values were obtained:
Myzus persicae [1] = assay: Myzus persicae - spray test (bell pepper plants); format: in vivo; conditions: application rate 4 ppm, after 6 days
Protocol: Myzus persicae—Spray Test Solvent: 7 parts by weight of dimethylformamide Emulsifier: alkylaryl polyglycol ether […] […] If the addition of ammonium salts or/and penetrants is required, these are each added in a concentration of 1000 ppm to the preparation solution. Bell pepper plants (Capsicum annuum) severely infested with the green peach aphid (Myzus persicae) are treated by spraying with the active compound preparation in the desired concentration.

[2] = log P by HPLC on reversed-phase C18 columns (OECD Guideline 117); method [a] acidic pH 2.7, method [b] neutral pH 7.8; format: physicochemical; conditions: for chromatographic logP: reversed-phase C18 HPLC column
Phaedon cochleariae = Phaedon cochleariae - spray test; format: in vivo; conditions: application rate 500 g/ha, Chinese cabbage leaf discs, after 7 days
From the text: Phaedon cochleariae—Spray Test
(§1) Emulsifier: alkylaryl polyglycol ether

Tetranychus urticae = Tetranychus urticae - spray test, OP-resistant; format: in vivo; conditions: application rate 500 g/ha, bean leaf discs, after 6 days
Protocol: Tetranychus urticae—Spray Test, OP-Resistant
as §1
After 6 days, the efficacy in % is determined. 100% means that all the spider mites have been killed; 0% means that none of the spider mites have been killed.

Spodoptera frugiperda = conditions: application rate 500 g/ha, maize leaf discs, after 7 days
Protocol: Spodoptera frugiperda—Spray Test
Solvent: 78.0 parts by weight of acetone • • 1.5 parts by weight of dimethylformamide
as §1
(§2) To produce further test concentrations, the preparation is diluted with emulsifier-containing water.
After 7 days, the efficacy in % is determined 100% means that all the caterpillars have been killed; 0% means that no caterpillars have been killed.

Myzus persicae [3] = assay: Myzus persicae - spray test (Chinese cabbage leaf discs); format: in vivo; conditions: application rate 500 g/ha, after 6 days; for pest or weed control at 500 g/ha: Myzus persicae, foliar, 144 h, read-out: efficacy (aphids killed)
Protocol: Myzus persicae—Spray Test
Solvent: 78 parts by weight of acetone • • 1.5 parts by weight of dimethylformamide
as §1, §2
After 6 days, the efficacy in % is determined 100% means that all the aphids have been killed; 0% means that none of the aphids have been killed.

Boophilus microplus = Boophilus microplus - injection test; format: in vivo; conditions: application rate 20 μg/animal, injection into engorged adult female cattle ticks, assessed after 7 days
Protocol: Boophilus microplus—Injection Test
Solvent: dimethyl sulphoxide
To produce a suitable preparation of active compound, 10 mg of active compound are mixed with 0.5 ml of solvent and the concentrate is diluted with solvent to the desired concentration.
1 μl of the active compound solution is injected into the abdomen of 5 engorged adult female cattle ticks (Boophilus microplus). The animals are transferred into dishes and kept in a climate-controlled room.
Efficacy is assessed after 7 days by laying of fertile eggs. Eggs which are not visibly fertile are stored in a climate-controlled cabinet until the larvae hatch after about 42 days. An efficacy of 100% means that none of the ticks has laid any fertile eggs; 0% means that all the eggs are fertile.

Meloidogyne incognita = Meloidogyne incognita test; format: in vivo; conditions: application rate 20 ppm, lettuce, after 14 days
Protocol: Meloidogyne Incognita Test
Solvent: 125.0 parts by weight of acetone
Vessels are filled with sand, active compound solution, an egg/larvae suspension of the southern root-knot nematode (Meloidogyne incognita) and lettuce seeds. The lettuce seeds germinate and the plants develop. The galls develop on the roots.
After 14 days, the nematicidal efficacy in % is determined by the formation of galls. 100% means that no galls were found; 0% means that the number of galls on the treated plants corresponds to the untreated control.

[4] = HPLC reversed-phase C18, method [a] acidic pH 2.7, read-out: logP[a]
[5] = HPLC reversed-phase C18, method [b] neutral pH 7.8, read-out: logP[b]
[6] = HPLC reversed-phase C18, method [a] acidic pH 2.7
[7] = HPLC reversed-phase C18, method [b] neutral pH 7.8

Row | chromatographic logP [2, 4] | chromatographic logP [2, 5] | Structure (SMILES) | logP[a] [2, 6] | logP[b] [2, 7] | efficacy (aphids killed) (Myzus persicae [3]) | pest or weed control at 500 g/ha (Myzus persicae [3]) | other results
1 | 1.73 | 1.76 | COc1cccc(-n2cnc3nc(-c4cccnc4)sc3c2=O)c1 [Compound 10, 6-(3-Methoxyphenyl)-2-(pyridin-3-yl)[1,3]thiazolo[4,5-d]pyrimidin-7(6H)-one] | – | – | – | – | efficacy (kill of aphids) (Myzus persicae [1]): 96%
2 | – | – | Cc1ccc(-n2cnc3nc(-c4cccnc4)sc3c2=O)cc1 [Compound 11] | 1.92 | 1.96 | – | – | efficacy (beetle larvae killed) (Phaedon cochleariae): 100%; efficacy (spider mites killed) (Tetranychus urticae): 90%; efficacy (caterpillars killed) (Spodoptera frugiperda): 100%
3 | – | – | Cn1ccc(Cn2cnc3nc(-c4cccnc4)sc3c2=O)n1 [Compound 37] | 0.97 | 1.08 | 90% | – | efficacy (beetle larvae killed) (Phaedon cochleariae): 100%; efficacy (caterpillars killed) (Spodoptera frugiperda): 100%
4 | – | – | O=c1c2sc(-c3cccnc3)nc2ncn1-c1cc(SCC2CC2)ccc1F [Compound 44] | 2.91 | 3.00 | – | – | efficacy (kill of aphids) (Myzus persicae [1]): 100%
5 | 2.25 | 2.05 | Cc1cc(F)c(-n2c(C)nc3nc(-c4cccnc4)sc3c2=O)cc1[S+]([O-])CC(F)(F)F (centres unmarked) [Compound 57, 6-{2-Fluoro-4-methyl-5-[(2,2,2-trifluoroethyl)sulphinyl]phenyl}-5-methyl-2-(pyridin-3-yl)[1,3]thiazolo[4,5-d]pyrimidin-7(6H)-one] | – | – | – | 100% | efficacy (spider mites killed) (Tetranychus urticae): 90%; efficacy (laying of fertile eggs) (Boophilus microplus): 100%
6 | 2.71 | 2.69 | O=c1c2sc(-c3cccnc3)nc2ncn1-c1ccc(SC(F)(F)F)cc1 [Compound 62, 2-(Pyridin-3-yl)-6-{4-[(trifluoromethyl)sulphanyl]phenyl}[1,3]thiazolo[4,5-d]pyrimidin-7(6H)-one] | – | – | – | 90% | efficacy (beetle larvae killed) (Phaedon cochleariae): 100%
7 | 2.03 | 1.99 | O=c1c2sc(-c3cccnc3)nc2ncn1-c1ccc([S+]([O-])C(F)(F)F)cc1 (centres unmarked) [Compound 63, 2-(Pyridin-3-yl)-6-{4-[(trifluoromethyl)sulphinyl]phenyl}[1,3]thiazolo[4,5-d]pyrimidin-7(6H)-one] | – | – | – | 90% | nematicidal efficacy (formation of galls) (Meloidogyne incognita): 90%
8 | – | – | Cc1cc(C)c(-n2cnc3nc(-c4cncc(F)c4)sc3c2=O)cc1SCC(F)(F)F [Compound 71] | 3.64 | 3.34 | 90% | – | –
9 | – | – | Cc1cc(C)c([S+]([O-])CC(F)(F)F)cc1-n1cnc2nc(-c3cncc(F)c3)sc2c1=O (centres unmarked) [Compound 72] | 2.35 | 2.29 | 90% | – | –
10 | 3.36 | 3.25 | Cc1cc(F)c(-n2cnc3nc(-c4cncc(F)c4)sc3c2=O)cc1SCC(F)(F)F [Compound 73, 6-{2-Fluoro-4-methyl-5-[(2,2,2-trifluoroethyl)sulphanyl]phenyl}-2-(5-fluoropyridin-3-yl)[1,3]thiazolo[4,5-d]pyrimidin-7(6H)-one] | – | – | – | 90% | –
11 | 2.34 | 2.26 | Cc1cc(F)c(-n2cnc3nc(-c4cncc(F)c4)sc3c2=O)cc1[S+]([O-])CC(F)(F)F (centres unmarked) [Compound 74, 6-{2-Fluoro-4-methyl-5-[(2,2,2-trifluoroethyl)sulphinyl]phenyl}-2-(5-fluoropyridin-3-yl)[1,3]thiazolo[4,5-d]pyrimidin-7(6H)-one] | – | – | – | 90% | –
12 | 2.88 | 2.77 | Cc1cc(C)c(-n2cnc3nc(-c4cncnc4)sc3c2=O)cc1SCC(F)(F)F [Compound 76, 6-{2,4-Dimethyl-5-[(2,2,2-trifluoroethyl)sulphanyl]phenyl}-2-(pyrimidin-5-yl)[1,3]thiazolo[4,5-d]pyrimidin-7(6H)-one] | – | – | – | 90% | –
13 | 1.84 | 1.82 | Cc1cc(C)c([S+]([O-])CC(F)(F)F)cc1-n1cnc2nc(-c3cncnc3)sc2c1=O (centres unmarked) [Compound 77, 6-{2,4-Dimethyl-5-[(2,2,2-trifluoroethyl)sulphinyl]phenyl}-2-(pyrimidin-5-yl)[1,3]thiazolo[4,5-d]pyrimidin-7(6H)-one] | – | – | – | 100% | –
14 | – | – | Cc1cc(F)c(-n2cnc3nc(-c4cncnc4)sc3c2=O)cc1SCC(F)(F)F [Compound 78] | 2.73 | 2.65 | 90% | – | –
15 | – | – | CC(c1ncnn1C)n1cnc2nc(-c3cccnc3)sc2c1=O (centres unmarked) [Compound 86] | 1.01 | 1.07 | 90% | – | –
